Data reported in the supplement of paper PMC10307832.

Tests used:
Assay in all cases: relative viability (nuclei count vs DMSO), 5 days (fraction); higher = more cells survive
Tosedostat + Palbociclib = compound: CC(C)C[C@@H](C(=O)N[C@H](C(=O)OC1CCCC1)c1ccccc1)[C@H](O)C(=O)NO [Tosedostat] + CC(=O)c1c(C)c2cnc(Nc3ccc(N4CCNCC4)cn3)nc2n(C2CCCC2)c1=O [Palbociclib] (partner 0.5 µM)
In short: (§1)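 Lung cancer cell lines were pin-tool dosed in 1536-well plates on the day after seeding, with either a lone drug or a fixed anchor-drug dose plus five library-drug doses (not always all listed) in √10 steps. Nuclei were counted on 4× images after 5 days. Relative viability is the ratio of treated-well to vehicle-well nuclei counts, with each value a median of duplicate plates.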

Tosedostat + Navitoclax = compound: CC(C)C[C@@H](C(=O)N[C@H](C(=O)OC1CCCC1)c1ccccc1)[C@H](O)C(=O)NO [Tosedostat] + CC1(C)CCC(c2ccc(Cl)cc2)=C(CN2CCN(c3ccc(C(=O)NS(=O)(=O)c4ccc(N[C@H](CCN5CCOCC5)CSc5ccccc5)c(S(=O)(=O)C(F)(F)F)c4)cc3)CC2)C1 [Navitoclax] (partner 0.5 µM)
In short: as §1

[1] = compound: CC1=NN=C(O1)C2=NN=C(C=C2)N3CCC(CC3)OC4=C(C=CC(=C4)F)Cl + C[C@@H](Oc1cc(-c2cnn(C3CCNCC3)c2)cnc1N)c1c(Cl)ccc(F)c1Cl [Crizotinib] (partner 1 µM)
In short: as §1

[2] = compound: CC1=NN=C(O1)C2=NN=C(C=C2)N3CCC(CC3)OC4=C(C=CC(=C4)F)Cl + C[C@]1(O)C[C@@H](c2nc(-c3ccc4ccc(-c5ccccc5)nc4c3)c3c(N)nccn32)C1 [Linsitinib] (partner 1 µM)
In short: as §1

Cell Line	relative viability (Tosedostat + Palbociclib; first compound 0.02 µM)	relative viability (Tosedostat + Palbociclib; first compound 0.06325 µM)	relative viability (Tosedostat + Palbociclib; first compound 0.2 µM)	relative viability (Tosedostat + Palbociclib; first compound 0.6325 µM)	relative viability (Tosedostat + Palbociclib; first compound 2 µM)	relative viability (Tosedostat + Navitoclax; first compound 0.02 µM)	relative viability (Tosedostat + Navitoclax; first compound 0.06325 µM)	relative viability (Tosedostat + Navitoclax; first compound 0.2 µM)	relative viability (Tosedostat + Navitoclax; first compound 0.6325 µM)	relative viability (Tosedostat + Navitoclax; first compound 2 µM)	relative viability ([1]; first compound 0.253 µM)	relative viability ([1]; first compound 0.8 µM)	relative viability ([1]; first compound 2.53 µM)	relative viability ([1]; first compound 8 µM)	relative viability ([2]; first compound 0.253 µM)	relative viability ([2]; first compound 0.8 µM)	relative viability ([2]; first compound 2.53 µM)	relative viability ([2]; first compound 8 µM)
NCI-H2347	0.411	0.451	0.407	0.494	0.4	0.671	0.8	0.766	0.688	0.68	0.734	0.522	0.646	0.607	0.636	0.69	0.766	0.658
NCI-H2405	0.576	0.559	0.548	0.484	0.466	1.18	0.846	0.82	0.812	0.611	0.503	0.428	0.465	0.428	0.859	0.784	0.851	0.731
NCI-H3122	0.195	0.211	0.216	0.22	0.249	1.05	1.05	0.996	1.05	1.03	0.3	0.303	0.318	0.359	0.729	0.551	0.749	0.517
PC-3 [JPC-3]	0.538	0.547	0.554	0.493	0.555	0.85	0.837	0.825	0.678	0.638	0.754	0.791	0.818	0.75	0.789	0.869	0.869	0.844
PC-14	0.583	0.469	0.502	0.447	0.444	1.03	0.999	1.04	0.994	1.06	0.747	0.636	0.713	0.739	0.783	0.732	0.777	0.739
RERF-LC-KJ	1.23	1.04	0.845	0.755	0.859	1.03	0.953	0.948	0.517	0.614	0.496	0.498	0.495	0.458	0.523	0.568	0.6	0.632
SK-LU-1	0.429	0.401	0.467	0.341	0.4	0.889	0.854	0.939	0.608	0.771	0.895	0.732	0.826	0.589	1.03	0.852	1.02	0.589
SK-MES-1	0.305	0.3	0.353	0.355	0.302	1.23	1.29	1.29	1.11	1	0.773	0.807	0.81	0.724	0.848	0.8	0.828	0.815
